Consider 17 compounds from US8394848B2, “Compounds that modulate intracellular calcium” (Calcimedica, Inc., priority 2008, dated 2013).

For assay [1], the target named is STIM1 and Orai1 in HEK293 cells (Homo sapiens, UniProt Q96D31). The conditions noted are these: STIM1 and Orai1 co-expression; cited from earlier work.
The subject of a further assay is Jurkat cells. Particulars: cited from earlier work.
Assay [2] deals with T1, recombinant human STIM1 and Orai1 (HEK-293 stable cells; JR251) (Homo sapiens, UniProt Q96D31).
T1 construct: c-myc (C); expressed in transfected cells
T1 sequence (Q96D31 whole entry): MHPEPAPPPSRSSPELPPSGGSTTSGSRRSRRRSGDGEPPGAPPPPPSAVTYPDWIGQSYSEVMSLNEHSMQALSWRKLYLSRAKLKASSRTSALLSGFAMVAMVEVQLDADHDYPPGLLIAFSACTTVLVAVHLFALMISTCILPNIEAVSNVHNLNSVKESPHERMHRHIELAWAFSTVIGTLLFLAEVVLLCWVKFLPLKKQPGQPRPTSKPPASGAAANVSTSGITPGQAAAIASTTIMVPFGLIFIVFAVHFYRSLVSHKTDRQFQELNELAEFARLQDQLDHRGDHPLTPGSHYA
Description: Fluorescence-based assay of store-operated calcium entry in Orai1/STIM1 stable cells. Type of assay: cell-based. The conditions noted are these: 50% inhibition of Peak-Basal signal. How it is done:
A. Fluorescence-Based Assay of Store-Operated Calcium Entry in Orai1/STIM1 Stable Cells.
Cells stably expressing recombinant human STIM1 and Orai1 were generated by transfecting a human Orai1 expression plasmid (pcDNA3.1-Orai1-cmyc) into HEK-293 cells stably overexpressing human STIM1 (Roos et al. 2005 JCB 169(3): 435-445). Colonies of cells stably expressing both STIM1 and Orai1 proteins were selected and then subcloned by limiting dilution. Cells were cultured at 37° C./6% CO2 in complete medium with 10% FBS and appropriate selection markers.
The day prior to performing the assay Orai1/STIM1 stable cells were plated in 50 μL of complete medium at 90-95% confluence in a 384 well plate. Cells were grown at 37° C./6% CO2 overnight. On the day of the assay, 1.5 μM fluo-4-AM (Invitrogen) in complete medium was added to the cells, which were then incubated for 1 hour at RT. Cells were washed once in Ca^2+-free HBSS (Hank's buffered saline solution) and 35 μl of Ca^2+-free HBSS was added to each well. Test compounds were added to wells in a 10 μL Ca^2+-free HBSS solution, prepared at 4.5× the desired final concentration, and incubated for 30 minutes at RT. The initial baseline fluorescence signal was then measured with a FLIPR^384 (Molecular Devices) plate reader. Calcium entry was initiated by adding 5 μl of 10×CaCl2 (10 mM) in HBSS, and changes in cellular fluorescence were measured with the FLIPR^384 plate reader. In each well, the magnitude of the fluorescence signal as a result of calcium entry into the cell was determined by calculating the difference between the peak fluorescence signal measured after calcium addition and the initial baseline fluorescence signal (designated Peak-Basal). IC50 values were typically calculated as the concentration that inhibited 50% of the Peak-Basal signal (Table A).

The subject of the next assay is RBL-2H3 cells. Description: Fluorescence-based assay of store-operated calcium entry in RBL-2H3 cells. Type of assay: cell-based. Particulars: Rattus norvegicus, 50% inhibition of Upslope, thapsigargin. As for the experimental part: B. Fluorescence-Based Assay of Store-Operated Calcium Entry in RBL-2H3Cells.
RBL-2H3 cells were obtained from ATCC and maintained in complete medium with 10% FBS at 37° C./6% CO2.
The day prior to performing the assay, RBL-2H3 cells are plated in 50 μL of complete medium in a 384 well plate. Cells are grown at 37° C./6% CO2 overnight and grow to 50-60% confluence by the next day. On the assay day, 1.5 μM Fluo-4-AM dye (Invitrogen) in complete medium is added and incubated for 1 hour at RT. Cells are washed twice in Ca^2+-free HBSS buffer and 35 μL Ca^2+-free HBSS buffer is added to each well. 10 μL of a test compound prepared in a Ca^2+-free HBSS solution at 4.5× of the desired concentration is added to a well and incubated for 5 minutes at RT. 10 μL of thapsigargin prepared in a Ca^2+-free HBSS solution at 5.5× of the desired concentration (5.5 uM) is added to each well and incubated for an additional 25 minutes. The initial baseline fluorescence signal is measured with a FLIPR^384 (Molecular Devices) plate reader. 5 μL of 12× calcium in HBSS (12 mM) is added and changes in cellular fluorescence are measured with the FLIPR^384 plate reader. In each well, the change in the fluorescent signal as a function of time due to calcium entry into the cell is determined by calculating the difference between the fluorescent signal measured 7 seconds after calcium addition and the initial baseline fluorescence signal at time zero (t=0). This parameter is designated Upslope. The IC50 value is calculated as the concentration at which 50% of the Upslope is inhibited.

The IC50 is the point on the concentration scale where inhibition reaches its midpoint.

Bounds are passed on as bounds.

STIM1 and Orai1 in HEK293 cells, sequence (Q96D31 whole entry): as above

On to `NCCOB(c1ccccc1)c1ccccc1` [2-aminoethoxydiphenylborate], for which the “block of store-dependent Ca2+ entry” value in assay [1] is on record as “completely blocked”.
`Cc1nnsc1C(=O)Nc1ccc(-n2nc(C(F)(F)F)cc2C(F)(F)F)cc1` [BTP-2]: in the assay on Jurkat cells, the “inhibition of SOCE” value is on record as “inhibits” and the inhibition of proliferation result is on record as “inhibits”.
Regarding `O=C(Nc1scc(-c2ccc(Br)cc2)c1C(=O)O)c1cc2ccccn2n1` [Compound I], the IC50 (in assay [2]; in the assay with RBL-2H3 cells) was not above 0.5 µM throughout.
As to `O=C(O)c1c(-c2ccc(Cl)cc2)csc1NC(=O)C(Cl)Cc1ccccc1` (stereo not drawn) [D], the half-inhibitory concentration (IC50) (in assay [2]; with RBL-2H3 cells) was not above 0.5 µM throughout.
As to `CC(Cc1ccccc1)C(=O)Nc1scc(-c2ccc(Br)cc2)c1C(=O)O` (stereo not drawn) [E], the IC50 (in assay [2]; with RBL-2H3 cells) was not above 0.5 µM each time.
Consider `Cc1ccc(-c2csc(NC(=O)c3cnc4ccccc4n3)c2C(=O)O)c(F)c1F` [F], for which the IC50 (in assay [2]; in the assay with RBL-2H3 cells) was not above 0.5 µM in each case.
Take `O=C(Nc1scc(-c2ccc(Cl)cc2)c1C(=O)O)c1nc2ccccc2s1` [G]: the 50% inhibitory concentration (IC50) (in assay [2]; in the assay on RBL-2H3 cells) was not above 0.5 µM in each case.
In the case of `COc1cc(C)c(-c2csc(NC(=O)c3cc4ccccc4o3)c2C(=O)O)cc1C` [H], the IC50 (in assay [2]; in the assay on RBL-2H3 cells) was not above 0.5 µM throughout.
For `O=C(Nc1scc(-c2ccc(Cl)cc2)c1C(=O)O)c1cc2sccc2s1` [J], the half-inhibitory concentration (IC50) (in assay [2]; in the assay on RBL-2H3 cells) was not above 0.5 µM throughout.
Turning to `O=C(O)c1c(-c2ccc(Cl)cc2)csc1NC(=O)C1CCc2ccccc2C1` (stereo not drawn) [K], the IC50 (in assay [2]; with RBL-2H3 cells) was not above 0.5 µM throughout.
Consider `COc1cc(C)c(-c2csc(NC(=O)c3cc4ccccc4o3)c2C(=O)O)c(C)c1` [N], for which the half-inhibitory concentration (IC50) (in assay [2]; in the assay with RBL-2H3 cells) was not above 0.5 µM in each case.
Consider `O=C(Nc1scc(-c2ccc(Cl)cc2)c1C(=O)O)c1cc2ccccn2n1` [O], for which the IC50 (in assay [2]; with RBL-2H3 cells) was not above 0.5 µM throughout.
Take `O=C(Nc1scc(-c2ccc(Cl)cc2)c1C(=O)O)c1cnc2ccccc2n1` [P]: the IC50 (in assay [2]; in the assay with RBL-2H3 cells) was not above 0.5 µM in each case.
Regarding `O=C(CCc1cccs1)Nc1scc(-c2ccc(Cl)cc2)c1C(=O)O` [R], the IC50 (in assay [2]; with RBL-2H3 cells) was not above 0.5 µM in each case.
For the compound `O=C(Nc1scc(-c2ccc(Cl)cc2)c1C(=O)O)c1ccc([N+](=O)[O-])o1` [V], the 50% inhibitory concentration (IC50) (in assay [2]; in the assay on RBL-2H3 cells) was not above 0.5 µM throughout.
For the compound `O=C(Nc1scc(-c2ccc(Cl)cc2)c1C(=O)O)c1nc(C2CC2)cs1` [W], the IC50 (in assay [2]; in the assay on RBL-2H3 cells) was not above 0.5 µM throughout.
`O=C(Nc1scc(-c2ccc(Cl)cc2)c1C(=O)O)c1cc2nccnc2s1` [X]: the 50% inhibitory concentration (IC50) (in assay [2]; in the assay with RBL-2H3 cells) was not above 0.5 µM in each case.
